The record followed here is US20230150921A1, “PHENOLIC ACID LIPID BASED CATIONIC LIPIDS” (Translate Bio, Inc., priority 2020, published 2023).

The data set is described as follows: Characterisation of lipid nanoparticle formulations (size, PDI, mRNA encapsulation). The class given is physicochemical. As to conditions: lipid nanoparticle with FFL mRNA; Process A; Cationic Lipid:DMG-PEG2000:Cholesterol:DOPE 40:5:25:30 mol%; N/P 4. Here is the method: One exemplary process for lipid nanoparticle formulation is Process A of WO 2018/089801 (see, e.g., Example 1 and FIG. 1 of WO 2018/089801). Process A (“A”) relates to a conventional method of encapsulating mRNA by mixing mRNA with a mixture of lipids, without first pre-forming the lipids into lipid nanoparticles. In an exemplary process, an ethanol lipid solution and an aqueous buffered solution of mRNA were prepared separately. A solution of mixture of lipids (cationic lipid, helper lipids, zwitterionic lipids, PEG lipids etc.) was prepared by dissolving lipids in ethanol. The mRNA solution was prepared by dissolving the mRNA in citrate buffer. The mixtures were then both heated to 65° C. prior to mixing. Then, these two solutions were mixed using a pump system. In some instances, the two solutions were mixed using a gear pump system. In certain embodiments, the two solutions were mixing using a ‘T’ junction (or “Y” junction). The mixture was then purified by diafiltration with a TFF process. The resultant formulation concentrated and stored at 2-8° C. until further use. A second exemplary process for lipid nanoparticle formulation is Process B of WO 2018/089801 (see, e.g., Example 2 and the FIGURE of WO 2018/089801). Process B (“B”) refers to a process of encapsulating messenger RNA (mRNA) by mixing pre-formed lipid nanoparticles with mRNA. A range of different conditions, such as varying temperatures (i.e., heating or not heating the mixture), buffers, and concentrations, may be employed in Process B. In an exemplary process, lipids dissolved in ethanol and citrate buffer were mixed using a pump system. […] The resultant formulation mixture was empty lipid nanoparticles in citrate buffer containing alcohol. The formulation was then subjected to a TFF purification process wherein buffer exchange occurred. The resulting suspension of pre-formed empty lipid nanoparticles was then mixed with mRNA using a pump system. […] The lipid nanoparticle formulations of Table 5 were prepared by either Process A or B. Each formulation comprised mRNA encoding firefly luciferase protein (FFL mRNA) and lipids (Cationic Lipid: DMG-PEG2000; Cholesterol: DOPE) in the mol % ratios set forth in Table 5.

In the case of `CCCCCCC/C=C\C/C=C\CCCCC(O)CN(CCCC(=O)Oc1c(OC)cc(C(=O)OCCCN(C)C)cc1OC)CC(O)CCCC/C=C\C/C=C\CCCCCCC` (stereo not drawn) [Compound 7], the Encapsulation % amounted to 95%, the PDI came out at 0.429 and the “Size (nm)” value is reported as 64.2 nm.

With `CCCCCCCCCCC(O)CN(CCCC(=O)Oc1ccc(C(=O)OCCCN(C)C)cc1CC)CC(O)CCCCCCCCCC` (stereo not drawn) [Compound 12], the Encapsulation % is given as 96%, the PDI is listed as 0.173 and the “Size (nm)” value came to 65.1 nm.

On to `CCCCCCCCC(O)CN(CCCC(=O)Oc1c(OC)cc(C(=O)OCCCN(C)C)cc1OC)CC(O)CCCCCCCC` (stereo not drawn) [Compound 1], for which the Encapsulation % is reported as 94%, the PDI is given as 0.235 and the “Size (nm)” value stood at 47.6 nm.

Turning to `CCCCCCCCCCCCC(O)CN(CCCCC(=O)Oc1c(OC)cc(/C=C/C(=O)OCCCN(C)C)cc1OC)CC(O)CCCCCCCCCCCC` (stereo not drawn) [Compound 11], the Encapsulation % was determined as 98%, the PDI amounted to 0.214 and the “Size (nm)” value amounted to 44.0 nm.

As for `CCCCCCCCCCC(O)CN(CCCC(=O)Oc1c(OC)cc(/C=C/C(=O)OCCCN(C)C)cc1OC)CC(O)CCCCCCCCCC` (stereo not drawn) [Compound 8], the Encapsulation % is 95%, the PDI is listed as 0.193 and the “Size (nm)” value turned out to be 43.3 nm.

For the compound `CCCCCCCCCCCCC(O)CN(CCCC(=O)Oc1c(OC)cc(C(=O)OCCCN(C)C)cc1OC)CC(O)CCCCCCCCCCCC` (stereo not drawn) [Compound 5], the Encapsulation % turned out to be 97%, the PDI is 0.249 and the “Size (nm)” value is reported as 48.4 nm.

For `CCCCCCCCC(O)CN(CCCCC(=O)Oc1c(OC)cc(C(=O)OCCCN(C)C)cc1OC)CC(O)CCCCCCCC` (stereo not drawn) [Compound 9], the Encapsulation % is given as 79%, the PDI was 0.213 and the “Size (nm)” value stood at 42.3 nm.

Take `CCCCCCCCCCCCC(O)CN(CCCCC(=O)Oc1c(OC)cc(C(=O)OCCCN(C)C)cc1OC)CC(O)CCCCCCCCCCCC` (stereo not drawn) [Compound 6]: the Encapsulation % is 73%, the PDI came out at 0.208 and the “Size (nm)” value is reported as 47.0 nm.

As to `CCCCCCCCC(O)CN(CCCCC(=O)Oc1c(OC)cc(C(=O)OCCCN(C)C)cc1OC)CC(O)CCCCCCCC` (stereo not drawn) [Compound 3], the Encapsulation % was determined as 89%, the PDI is 0.207 and the “Size (nm)” value is reported as 40.3 nm.

As for `CCCCCCCCCCC(O)CN(CCCC(=O)Oc1c(OC)cc(C(=O)OCCCN(C)C)cc1OC)CC(O)CCCCCCCCCC` (stereo not drawn) [Compound 2], the Encapsulation % was 94%, the PDI is 0.251 and the “Size (nm)” value is on record as 48.9 nm.

Regarding `CCCCCCCCCCC(O)CN(CCCCC(=O)Oc1c(OC)cc(/C=C/C(=O)OCCCN(C)C)cc1OC)CC(O)CCCCCCCCCC` (stereo not drawn) [Compound 10], the Encapsulation % is 94%, the PDI is on record as 0.213 and the “Size (nm)” value is 43.3 nm.

Regarding `CCCCCCCCCCC(O)CN(CCCCC(=O)Oc1c(OC)cc(C(=O)OCCCN(C)C)cc1OC)CC(O)CCCCCCCCCC` (stereo not drawn) [Compound 4], the Encapsulation % came out at 91%, the PDI amounted to 0.198 and the “Size (nm)” value is reported as 41.4 nm.
